From patent US20220380341A1, “INHIBITORS OF HIV-1 NEF FOR THE TREATMENT OF HIV DISEASE” (priority 2018, published 2022)
Read-outs that look alike come from different tables or passages of the source.

What was measured:
HIV-1 NefNL4-3 = HIV-1 NefNL4-3 (Human immunodeficiency virus type 1 group M subtype B, UniProt P03406, A33V/T15A/T51N/V11I); test: Surface plasmon resonance binding to recombinant full-length Nef (NL4-3); details: for RU30/RUNef (extent of binding): response units at 30 μM relative to Nef immobilized on the SPR chip
HIV-1NL4-3 = test: HIV-1 infectivity assay in TZM-bl reporter cell line (LTR-luciferase, 48 h); assay type: cell-based; details: Human immunodeficiency virus 1, TZM-bl
Summary of the method: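 Compounds were tested at 1 μM in TZM-bl cells infected with HIV-1NL4-3. Infectivity was read as luciferase signal 48 h after infection and expressed as percent inhibition, normalized between DMSO-treated wild-type infection (0%) and DMSO-treated Nef-defective HIV-1 infection (100% of the Nef-dependent effect).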

TZM-bl cell line = assay type: cell-based; details: human, 1 μM
Summary of the method: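 TZM-bl cells (HIV-1 LTR-luciferase) infected with HIV-1NL4-3 with compound at 1 μM; luciferase read 48 h later. Percent inhibition normalized to DMSO wild-type infection (0%) and Nef-defective HIV-1 infection (100% of Nef-dependent effect). Viability in uninfected TZM-bl cells by Cell Titer Blue.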

[1] = KD, M, Table 4, SPR fit 1:1 Langmuir, KD = koff/kon
[2] = Table 4, 1:1 Langmuir fit, T = 1/koff
[3] = 1.0 μM, TZM-bl reporter cell line, Table 4, read-out: % Infectivity Inhibition
[4] = 48 h, Table 1, TZM-bl cells, 1 μM, 48 h, 100% = Nef-defective HIV-1, read-out: HIV-1 Infectivity % Inhibition Norm. to Δ-Nef @ 1 μM
[5] = KD, M, Table 4, SPR fit 2-step induced fit, KD = koff/kon × koff2/(koff2 + kon2)
[6] = Nef NL4-3 Binding, SPR 2-state fitting KD, Table 1, 2-step induced-fit model
[7] = Table 4, 2-step induced fit, T = 1/koff2
[8] = read-out: Nef NL4-3 Binding, SPR 1:1 or 2-site fitting KD2, Table 1, 2-site fit, second component
[9] = Table 1, 1:1 Langmuir fit where the KD2 cell says '1 to 1 fitting', else 2-site fit

SMILES | Kd (HIV-1 NefNL4-3) | Kd (HIV-1 NefNL4-3; [1]) | T, minutes (residence time) (HIV-1 NefNL4-3; [2]) | RU30/RUNef (extent of binding) (HIV-1 NefNL4-3) | inhibition at 1 µM (HIV-1NL4-3; [3]) | inhibition at 1 µM (HIV-1NL4-3; [4]) | % Cell Viability (TZM-bl cell line) | Percent Viability @ 1 μM (TZM-bl cells) (TZM-bl cell line) | inhibition at 1 µM (HIV-1NL4-3; 48 h, Table 2, TZM-bl cells, 1 μM, 48 h, 100% = Nef-defective HIV-1, read-out: HIV-1 Infectivity % Inhibition Norm. to Δ-Nef @ 1 μM) | Kd (HIV-1 NefNL4-3; [5]) | Kd (HIV-1 NefNL4-3; [6]) | T, minutes (residence time) (HIV-1 NefNL4-3; [7]) | Kd (HIV-1 NefNL4-3; [8]) | Nef NL4-3 Binding, SPR 1:1 or 2-site fitting KD1 (HIV-1 NefNL4-3; [9]) | Kd (HIV-1 NefNL4-3; Table 4, SPR fit 2-step induced fit, KD = koff/kon × koff2/(koff2 + kon2)) | Kd (HIV-1 NefNL4-3; read-out: Nef NL4-3 Binding, SPR 1:1 or 2-site fitting KD1, Table 1, 1:1 Langmuir fit where the KD2 cell says '1 to 1 fitting', else 2-site fit) | Kd (HIV-1 NefNL4-3; read-out: Nef NL4-3 Binding, SPR 2-state fitting KD, Table 1, 2-step induced-fit model)
CC(=O)N1CCC(CCc2c(-c3ccc(C(F)(F)F)cn3)nn(-c3nc4ccccc4[nH]3)c2O)CC1 [Compound I-714, 1-(4-{2-[1-(1H-1,3-benzodiazol-2-yl)-5-hydroxy-3-[5-(trifluoromethyl)pyridin-2-yl]-1H-pyrazol-4-yl]ethyl}piperidin-1-yl)ethan-1-one] | 1110 nM | 1110 nM | 3.64E + 00 minutes | 1.32E- 03 | 63.6% | 63.6% | 98.3% | 98.3% | – | – | – | – | – | – | – | – | –
Nc1c(CCC2CCOCC2)c(-c2ccc(F)cc2)nn1-c1cc(C(F)(F)F)n[nH]1 [Compound I-1402] | 4750 nM | – | – | – | – | – | – | 102.2% | 8.7% | – | – | – | – | – | – | – | –
CS(=O)(=O)c1ccc(-c2nn(-c3nc4cc(Cl)ccc4[nH]3)c(O)c2CCC2CCOCC2)cc1 [Compound I-168, 1-(5-chloro-1H-1,3-benzodiazol-2-yl)-3-(4-methanesulfonylphenyl)-4-[2-(oxan-4-yl)ethyl]-1H-pyrazol-5-ol] | 751 nM | – | – | 6.97E- 03 | 19.2% | 19.2% | 97.9% | 97.9% | – | 2730 nM | 2730 nM | 4.96E + 00 minutes | 4970 nM | – | – | – | –
CO[C@H](C)C(=O)N1CCC(c2nn(-c3nc4ccccc4[nH]3)c(O)c2CCc2ccc(F)cc2)CC1 [Compound I-727, (2R)-1-{4-[1-(1H-1,3-benzodiazol-2-yl)-4-[2-(4-fluorophenyl)ethyl]-5-hydroxy-1H-pyrazol-3-yl]piperidin-1-yl}-2-methoxypropan-1-one] | – | – | – | – | – | 8.7% | – | 95.1% | – | – | – | – | – | No Interaction | – | – | –
O=C1CCCN1CCc1c(-c2ccc(C(F)(F)F)cc2)nn(-c2nc3ccccc3[nH]2)c1O [Compound I-132, 1-{2-[1-(1H-1,3-benzodiazol-2-yl)-5-hydroxy-3-[4-(trifluoromethyl)phenyl]-1H-pyrazol-4-yl]ethyl}pyrrolidin-2-one] | 61.8 nM | – | – | 5.62E- 03 | 15.7% | 15.7% | 96.5% | 96.5% | – | 1700 nM | 1700 nM | 5.46E + 00 minutes | 8010 nM | – | – | – | –
O=C(c1ccccn1)N1CCC(c2nn(-c3nc4ccccc4[nH]3)c(O)c2CCc2ccc(F)cc2)CC1 [Compound I-730, 1-(1H-1,3-benzodiazol-2-yl)-4-[2-(4-fluorophenyl)ethyl]-3-[1-(pyridine-2-carbonyl)piperidin-4-yl]-1H-pyrazol-5-ol] | – | – | – | – | – | 24.6% | – | 95.1% | – | – | – | – | – | No Interaction | – | – | –
CN1CCN(CC(=O)N2CCC(c3nn(-c4nc5ccccc5[nH]4)c(O)c3CCc3ccc(F)cc3)CC2)CC1 [Compound I-726, 1-{4-[1-(1H-1,3-benzodiazol-2-yl)-4-[2-(4-fluorophenyl)ethyl]-5-hydroxy-1H-pyrazol-3-yl]piperidin-1-yl}-2-(4-methylpiperazin-1-yl)ethan-1-one] | – | – | – | – | – | -4.6% | – | 102.4% | – | – | – | – | – | No Interaction | – | – | –
CC(C)(C)c1nn(-c2nc3ccccc3[nH]2)c(O)c1CCc1ccc(F)cc1 [Compound I-130, 1-(1H-1,3-benzodiazol-2-yl)-3-tert-butyl-4-[2-(4-fluorophenyl)ethyl]-1H-pyrazol-5-ol] | 702 nM | – | – | 9.49E- 03 | 43.6% | 43.6% | 98.7% | 98.7% | – | 3800 nM | 3800 nM | 1.15E + 01 minutes | 13000 nM | – | – | – | –
Oc1c(CCc2ccc(F)cc2)c(-c2cncc(Br)c2)nn1-c1nc2ccccc2[nH]1 [Compound I-118, 1-(1H-1,3-benzodiazol-2-yl)-3-(5-bromopyridin-3-yl)-4-[2-(4-fluorophenyl)ethyl]-1H-pyrazol-5-ol] | 95.6 nM | – | – | – | – | 101% | – | 81.6% | – | – | 0.216 nM | – | 17100 nM | – | – | – | –
O=C(c1cnccn1)N1CCC(c2nn(-c3nc4ccccc4[nH]3)c(O)c2CCc2ccc(F)cc2)CC1 [Compound I-728, 1-(1H-1,3-benzodiazol-2-yl)-4-[2-(4-fluorophenyl)ethyl]-3-[1-(pyrazine-2-carbonyl)piperidin-4-yl]-1H-pyrazol-5-ol] | 142 nM | – | – | – | – | 53.7% | – | 99.1% | – | – | – | – | – | – | – | – | –
COC(=O)N1CCC(c2nn(-c3nc4ccccc4[nH]3)c(O)c2CCc2ccc(F)cc2)CC1 [Compound I-740, methyl 4-[1-(1H-1,3-benzodiazol-2-yl)-4-[2-(4-fluorophenyl)ethyl]-5-hydroxy-1H-pyrazol-3-yl]piperidine-1-carboxylate] | 157 nM | – | – | 7.81E- 03 | 39.1% | 39.1% | 89.8% | 89.8% | – | 544 nM | 544 nM | 1.26E + 01 minutes | 3380 nM | – | – | – | –
CS(=O)(=O)c1ccc(-c2nn(-c3nc4cc(F)ccc4[nH]3)c(O)c2CCC2CCOCC2)cc1 [Compound I-169, 1-(5-fluoro-1H-1,3-benzodiazol-2-yl)-3-(4-methanesulfonylphenyl)-4-[2-(oxan-4-yl)ethyl]-1H-pyrazol-5-ol] | 465 nM | – | – | – | – | -4.8% | – | 98.7% | – | – | 7400 nM | – | 1810 nM | – | – | – | –
Cc1ccn(CCc2c(-c3ccc(C(F)(F)F)cc3)nn(-c3nc4ccccc4[nH]3)c2O)n1 [Compound I-128, 1-(1H-1,3-benzodiazol-2-yl)-4-[2-(3-methyl-1H-pyrazol-1-yl)ethyl]-3-[4-(trifluoromethyl)phenyl]-1H-pyrazol-5-ol] | – | – | – | 5.56E- 03 | 33.5% | 33.5% | 97.9% | 97.9% | – | – | – | 1.20E + 03 minutes | 4330 nM | – | 7.64 nM | 0.146 nM | 7.64 nM
Oc1c(CCn2cc(Cl)cn2)c(-c2ccc(C(F)(F)F)cc2)nn1-c1nc2ccccc2[nH]1 [Compound I-143, 1-(1H-1,3-benzodiazol-2-yl)-4-[2-(4-chloro-1H-pyrazol-1-yl)ethyl]-3-[4-(trifluoromethyl)phenyl]-1H-pyrazol-5-ol] | 426 nM | 426 nM | 1.75E + 01 minutes | 1.02E- 03 | 0% | -19.6% | 98.9% | 98.9% | – | – | – | – | – | – | – | – | –
